Holding throughout (assay type): in vivo
For series [1], the system named is Rumex obtusifolius (broad-leaf dock). Nature of the series: Greenhouse postemergence herbicidal effect on RUMOB. The conditions noted are these: Compound A 0, Bifenox 90 g/ha. The source says:
(§1) Greenhouse Trial Methodology—Evaluation of Postemergence Herbicidal Effect
(§2) Seeds of the desired test plant species were planted in a 90:10% v/v (volume/volume) mixture of PRO-MIX® BX (Premier Tech Horticulture, Quakertown, Pa., USA) and PROFILE® GREENS GRADE™ (Profile Products LLC, Buffalo Grove, Ill., USA) planting mixture, which typically has a pH of 5.2 to 6.2 and an organic matter content of at least 50 percent, in plastic pots with a surface area of 103.2 square centimeters (cm^2). In some aspects or embodiments, to help ensure good germination and healthy plants, a fungicide treatment and/or other chemical or physical treatment was applied. The plants were grown for 7-36 days (d) in a greenhouse with an approximate 14-hour (h) photoperiod which was maintained at about 23° C. during the day and 22° C. during the night. Nutrients and water were added on a regular basis and supplemental lighting was provided with overhead metal halide 1000-Watt lamps as necessary. The plants were employed for testing when they reached the second or third true leaf stage.
(§3) Emulsifiable concentrates of each of each pyridine carboxylate herbicide (Compound A or Compound B) were prepared at 100 grams acid equivalent per liter (g ae/L). The emulsifiable concentrates also included a safener, cloquintocet mexyl, at 120 grams active ingredient per liter (g ai/L). An aliquot of each emulsifiable concentrate was placed in a 25 mL glass vial and diluted with an aqueous mixture of 1.25% (v/v) ACTIROB® B esterified rapeseed oil (Bayer Crop Science, Research Triangle Park, N.C., USA) or MSO® Concentrate with LECI-TECH® methylated soybean oil (Loveland Products, Loveland, Colo., USA) to obtain concentrated stock solutions at the highest application rate for each herbicide, based upon a 12 milliliter (mL) application volume at a rate of 187 liters per hectare (L/ha). The concentrated stock solutions were further diluted with an aqueous mixture of 1.25% v/v ACTIROB® B or MSO® Concentrate with LECI-TECH® to obtain stock solutions at reduced application rates for each herbicide. Spray solutions of the herbicide combinations (Compound A or Compound B plus PROTOX inhibitor herbicide) were prepared by adding weighed amounts or aliquots of the PROTOX inhibitor herbicides to the stock solutions of Compound A or Compound B to form 12-mL spray solutions in two-way combinations.
(§4) The spray solutions were applied to the plant material with an overhead Mandel track sprayer equipped with 8002E nozzles calibrated to deliver 187 L/ha over an application area of 0.503 square meters (m^2) at a spray height of 18 inches (43 centimeters (cm)) above the average plant canopy. Control plants were sprayed in the same manner with the solvent blank. All pyridine carboxylate herbicide (component a) application rates are given as “g ae/ha” and all PROTOX inhibitor herbicide (component b) application rates are given as “g ai/ha.”
(§5) The treated plants and control plants were placed in a greenhouse as described above and watered by sub-irrigation to prevent wash-off of the test compounds. After 20-22 d, the condition of the test plants as compared with that of the control plants was determined visually and scored on a scale of 0 to 100 percent where 0 corresponds to no injury and 100 corresponds to complete kill.

For series [2], the system named is Viola tricolor (wild pansy). Kind of series: Greenhouse postemergence herbicidal effect on VIOTR.
From the text: as §1, §2, §3, §4, §5

Series [3] relates to Cirsium arvense (Canadian thistle). Kind of series: Greenhouse postemergence herbicidal effect on CIRAR.
From the text: as §1, §2, §3, §4, §5

For series [4], the system named is Brassica napus (spring rape). Nature of the series: Greenhouse postemergence herbicidal effect on BRSNN. As to conditions: Compound A 0, Bifenox 90 g/ha.
From the text: as §1, §2, §3, §4, §5

The test system of series [5] is Setaria faberi (giant foxtail). Kind of series: Greenhouse postemergence herbicidal effect on SETFA.
From the text: as §1, §2, §3, §4, §5

A further series concerns Kochia scoparia (kochia). Nature of the series: Greenhouse postemergence herbicidal effect on KCHSC.
From the text: as §1, §2, §3, §4, §5

For the next series, the system named is Avena fatua (wild oat). Nature of the series: Greenhouse postemergence herbicidal effect on AVEFA. The conditions noted are these: Compound A 0, Bifenox 90 g/ha.
From the text: as §1, §2
(§6) Emulsifiable concentrates of each of each pyridine carboxylate herbicide (Compound A or Compound B) were prepared at 100 grams acid equivalent per liter (g ae/L). The emulsifiable concentrates also included a safener, cloquintocet mexyl, at 120 grams active ingredient per liter (g ai/L). […]
as §5

The subject of series [6] is Echinochloa crus-galli (barnyard grass). Kind of series: Greenhouse postemergence herbicidal effect on ECHCG. As to conditions: Compound A 0, Bifenox 90 g/ha.
From the text: as §1, §2, §6, §5

Series [7] has as its system Digitaria sanguinalis (large crabgrass). Nature of the series: Greenhouse postemergence herbicidal effect on DIGSA. As to conditions: Compound A 0, Bifenox 90 g/ha.
From the text: as §1, §2, §6, §5

Series [8] deals with Triticum aestivum (spring wheat). Kind of series: Greenhouse postemergence phytotoxicity on crop TRZAS. The conditions noted are these: Compound A 0, Carfentrazone-ethyl 5 g/ha.
From the text: as §1, §2, §3, §4, §5

The test system of series [9] is Polygonum convolvulus (wild buckwheat). Nature of the series: Greenhouse postemergence herbicidal effect on POLCO. As to conditions: Compound A 0, Carfentrazone-ethyl 5 g/ha.
From the text: as §1, §2, §3, §4, §5

For series [10], the system named is Salsola kali (Russian thistle). Nature of the series: Greenhouse postemergence herbicidal effect on SASKR. As to conditions: Compound A 0, Carfentrazone-ethyl 5 g/ha.
From the text: as §1, §2, §3, §4, §5

Series [11] has as its system Hordeum vulgare (spring barley). Kind of series: Greenhouse postemergence phytotoxicity on crop HORVS. The conditions noted are these: Compound A 0, Carfentrazone-ethyl 5 g/ha.
From the text: as §1, §2, §3, §4, §5

[12] abbreviates: Compound B 7.5, Saflufenacil 0 g/ha.
Setting [13] is: Compound B 10, Saflufenacil 0 g/ha.

As for `COC(=O)c1cc(Oc2ccc(Cl)cc2Cl)ccc1[N+](=O)[O-]` [Bifenox, methyl 5-(2,4-dichlorophenoxy)-2-nitrobenzoate, reference compound], the “% visual injury, Obs” value in series [1] came to 0%; in series [2] (Compound A 0, Bifenox 90 g/ha), 0%; in series [3] (Compound A 0, Bifenox 90 g/ha), 18%; in series [4], 23%; in [5] (Compound A 0, Bifenox 90 g/ha), 18%; in the series with Kochia scoparia (kochia) (Compound A 0, Bifenox 90 g/ha), 73%. Also, the “% visual injury, Obs” value stood at 5% in the series with Avena fatua (wild oat), 15% in series [6] and 25% in series [7].
Turning to `CCOC(=O)C(Cl)Cc1cc(-n2nc(C)n(C(F)F)c2=O)c(F)cc1Cl` (stereo not drawn) [Carfentrazone-ethyl, ethyl α,2-dichloro-5-[4-(difluoromethyl)-4,5-dihydro-3-methyl-5-oxo-1H-1,2,4-triazol-1-yl]-4-fluorobenzenepropanoate, reference compound], the “% visual injury, Obs” value in the series with Kochia scoparia (kochia) (Compound A 0, Carfentrazone-ethyl 5 g/ha) worked out at 20%; in [8], 0%; in series [9], 5%; in [10], 68%; in series [11] it was 8%.
As for `C#CCOC(=O)c1nc(-c2ccc3cc[nH]c3c2F)c(F)c(N)c1Cl` [Compound B, propargyl 4-amino-3-chloro-5-fluoro-6-(7-fluoro-1H-indol-6-yl)pyridine-2-carboxylate], the “% visual injury, Obs” value in [2] (setting [12]) is reported as 10%; in series [2] (setting [13]), 40%; in series [3] (setting [12]), 45%; in series [3] (setting [13]) it was 45%; in [5] (setting [12]), 70%; in series [5] (setting [13]), 55%.

The record behind these values is US12465050B2, “Compositions comprising a pyridine carboxylate herbicide and protoporphyrinogen oxidase (protox) inhibitor herbicides” (priority 2018, dated 2025).
